In patent US20180000778A1, “SMALL MOLECULE ANTAGONISTS OF DUSP5 AND METHODS OF USE” (THE MEDICAL COLLEGE OF WISCONSIN, INC., priority 2015, published 2018):
“And” between values parts separate entries of the source, which are not always exact repeats. Equal entries are not always repeated. Structures can show the parent of a compound that is named as a salt. Blank lines part the entries; values can stand above or below the compound they belong to.

Tests used:
phosphatase [1] = conditions: cited from earlier work
full-length DUSP5 = biological target: T1, full-length DUSP5 (Homo sapiens, UniProt Q16690); assay: ERK dephosphorylation assay, full-length DUSP5 with pERK2 substrate, western blot; type: biochemical
T1 construct: an assay was development using ERK2 and full-length DUSP5
T1 sequence (Q16690 1-384): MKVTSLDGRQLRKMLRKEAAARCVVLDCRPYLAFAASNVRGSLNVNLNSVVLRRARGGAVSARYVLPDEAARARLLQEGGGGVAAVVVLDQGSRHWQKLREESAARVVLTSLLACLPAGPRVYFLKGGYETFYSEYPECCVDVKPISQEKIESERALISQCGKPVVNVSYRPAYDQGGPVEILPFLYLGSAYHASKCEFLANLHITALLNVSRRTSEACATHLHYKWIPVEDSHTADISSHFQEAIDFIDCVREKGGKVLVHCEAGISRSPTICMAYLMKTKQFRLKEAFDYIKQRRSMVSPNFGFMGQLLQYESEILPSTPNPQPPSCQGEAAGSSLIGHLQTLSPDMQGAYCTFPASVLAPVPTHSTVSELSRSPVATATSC
Protocol: ERK Dephosphorylation Assay.
For this assay, 10 ng of GST-tagged recombinant phosphorylated ERK2 (R&D Systems, 1230-KS) was incubated with and without the indicated DUSP5 proteins (0.5 nM final concentration) for 15 min at room temperature, with or without the indicated drugs. The reactions were halted with 2× Laemmli sample buffer and subjected to SDS-PAGE. The proteins were transferred to polyvinylidene difluoride (PVDF) and immunoblotted using antibodies to pERK (Cell Signaling Tech., #9106) and Total ERK (Cell Signaling Tech., #9102). Bound antibodies were visualized using horseradish peroxidase-linked anti-mouse IgG (Cell Signaling Tech, #7076S) and anti-rabbit IgG (Cell Signaling Tech, #7074S), respectively, and ECL reagents (Pierce, 34708) according to the manufacturer's protocol. IC50s were calculated using GraphPad Prism 6 software.
And, the native substrate for DUSP5 is the pERK2 protein, which is much larger and capable of a more complicated range of inter-molecular interactions that the pNPP substrate (which is intended only to mimic the phospho-tyrosine of pERK). […] To this end, an assay was development using ERK2 and full-length DUSP5, monitoring pERK levels in a western blot, as a function of pERK2 substrate concentration. […] This surprising increase in potency for CSD3-2320 (but not NTS) with full length DUSP5 underscores the importance of performing secondary assays with biologically relevant forms of enzyme and substrate.

DUSP5 PD(WT) [2] = biological target: T2, DUSP5 PD(WT) (Homo sapiens, UniProt Q16690); assay: pNPP phosphatase activity assay with DUSP5 PD(WT); type: biochemical
T2 construct: hexa-histidine (N); made in house; host or cells: E. coli BL21(DE3)
T2 sequence (Q16690 178-319 limits assumed): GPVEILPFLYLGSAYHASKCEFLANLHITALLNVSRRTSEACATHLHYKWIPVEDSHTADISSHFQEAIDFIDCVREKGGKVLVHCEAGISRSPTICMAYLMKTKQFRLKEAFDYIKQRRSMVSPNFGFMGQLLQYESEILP
Description: p-Nitrophenolphosphatase (pNPP) Activity Assay.
To measure enzymatic activity of the DUSP5 PD and the inhibitory capacity of selected molecules, an in vitro phosphatase assay was developed based on previous studies (27). In this assay, DUSP5 PD dephosphorylates the substrate p-nitrophenol phosphate (pNPP, Sigma Aldrich), yielding p-nitrophenolate, which absorbs at 405 nm with an extinction coefficient of 18,000 M-1 cm-1.
Thus, an increase in absorbance at 405 nm corresponds to the turnover of pNPP top-nitrophenolate. The assay was initially optimized in 1 mL quartz cuvettes, then was subsequently optimized for and validated in a 96-well plate format. All IC50 values were obtained using the 96-well plate assay format (see below). The assay buffer contained 100 mM Tris, 100 mM sodium chloride, 5 mM magnesium chloride, and 1 mM dithiothreitol (DTT) at pH 7.5. The pNPP substrate was prepared as a 50 mM stock by dissolving the solid substrate in assay buffer. The DUSP5 PD and pNPP were assayed initially in a cuvette (1 mL total volume) and initial velocities were fitted to the Michaelis-Menten equation (1)
where v is the initial velocity, Vmax is the maximum velocity, Km is the Michaelis constant, and [S] is the concentration of pNPP. Data were fitted using a nonlinear least squares fit to eq. 1, with GraphPad Prism 6 software.
For the 96-well plate validation assay, sodium orthovanadate (Sigma Aldrich) was utilized as a positive control for inhibition (Swarup et al., Biochem Biophys Res Commun. 1982; 107:1104-9.) at a final concentration of 10 μM, to completely block activity. All plate assays were performed in standard 96-well clear bottom plates (Thermo Scientific Nunc) with a total assay volume of 200 μL, using a SpectraMax M5 Microplate Reader (Molecular Devices). The plate validation assay was performed with replicate columns of positive control wells, negative control wells and blank wells. Blank columns contained only buffer and pNPP. Negative control (uninhibited) contained buffer, pNPP, and DUSP5 PD; and, positive control contained the same components, but also contained 10 μM sodium orthovanadate. The plate was then shaken and allowed to equilibrate in the spectrophotometer at 25° C. for 30 min. After incubation, 4 μL of a […] was dispensed into appropriate wells utilizing a single-channel pipette. This produced a final enzyme concentration of 1 μM. Before a read was taken, the plate was shaken for five seconds. The initial rate for the DUSP5 PD reaction was linear for approximately 90 min; and, the plate was kept in the spectrophotometer at 25° C. for an additional 80 min after the kinetic read. The endpoint reading was subsequently taken at 90 min after initiation of reaction. Slopes from the kinetic read, as well as single-point absorbance values at the 90-minute endpoint read, were then averaged. For blank wells and positive control wells, both slope values (continuous assay) and single point absorbance values (fixed time assay) were approximately zero, as expected. Standard deviations were calculated and a Z′ value (Zhang et al., J Biomol Screening. 1999; 4:67-73) subsequently determined using the following equation: […]
IC50 values were obtained using the assay described above, in 96 well plates. The maximum inhibitor concentration screened in any plate was […] and the minimum was 1.5 μM. The IC50 plate was designed so that the first column of wells served as blanks, with wells containing only buffer and substrate. The second column of wells functioned as the plate negative control, with each well containing buffer, substrate and enzyme. The remaining wells in the plate contained buffer, substrate, enzyme, and varying amounts of inhibitor, with inhibitor concentration increasing from left to right across the plate. Data points were collected in triplicate, and inhibitor concentrations were chosen to provide data equally spread on a logarithmic scale. […]

DUSP5 (PD)-WT = biological target: T3, DUSP5 (PD)-WT (Homo sapiens, UniProt Q16690); assay: Phosphatase inhibition profiles (Table 4), initial rates; type: biochemical; conditions: read-out: IC50 DUSP5 (PD)-WT (mean ± SE)
T3 construct: hexa-histidine (N); made in house; host or cells: E. coli BL21(DE3)
T3 sequence (Q16690 178-319): T2 sequence (Q16690 178-319 limits assumed)

PTPN1 = biological target: T4, PTPN1 (Homo sapiens, UniProt P18031); assay: as above; type: biochemical; conditions: read-out: IC50 PTPN1 (mean ± SE)
T4 sequence (P18031 1-435): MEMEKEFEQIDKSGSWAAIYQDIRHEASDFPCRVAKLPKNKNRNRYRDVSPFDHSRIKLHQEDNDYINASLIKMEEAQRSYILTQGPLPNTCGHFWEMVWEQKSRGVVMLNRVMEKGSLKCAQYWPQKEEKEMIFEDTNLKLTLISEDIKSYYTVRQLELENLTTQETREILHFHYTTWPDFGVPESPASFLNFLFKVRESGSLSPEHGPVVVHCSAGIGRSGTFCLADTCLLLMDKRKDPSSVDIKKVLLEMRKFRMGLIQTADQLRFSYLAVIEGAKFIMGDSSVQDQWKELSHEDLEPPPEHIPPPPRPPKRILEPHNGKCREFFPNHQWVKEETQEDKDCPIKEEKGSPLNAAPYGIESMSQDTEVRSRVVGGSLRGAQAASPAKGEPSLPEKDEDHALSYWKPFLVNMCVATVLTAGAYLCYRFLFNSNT

phosphatase [3] = assay: Phosphatase inhibitory activity (Example 3, range of activity); type: biochemical
PTP1B = PTP1B (Homo sapiens, UniProt P18031); assay: NCI compound library screen, phosphatase inhibitory activity; type: biochemical
SHP-1 = SHP-1 (Homo sapiens, UniProt P29350); assay: as above; type: biochemical
[4] = Aggregation of compounds (nephelometry; detergent treatment); type: physicochemical
Protocol: Nephelometry is a technique for measuring the relative aggregation of particles in solution, based on the light-scattering properties of molecular aggregates (30). To explore the ability of the chemicals studied herein to form aggregates, which can lead to artifactual inhibition effects, nephelometry was performed. Compounds were tested for aggregation in 96-well plates using a buffer containing 100 mM Tris base, 100 mM sodium chloride, and 5 mM magnesium chloride at pH 7.5. Each compound analyzed in these experiments contained concentrations of compound ranging from 10-100 μM, recorded in quadruplet. Each plate was analyzed at two separate gain values of 52 and 72. Data were collected using a BMG NEPHELOstar Plus, equipped with a 635 nm laser.
To investigate whether Suramin aggregates in solution, a property often investigated with small molecules, we performed detergent treatment assays. […] NTS and Suramin were compared using DUSP5 PD IC50 assays performed with and without detergent. […] We concluded that Suramin forms aggregates in vitro which can lead to non-specific protein inhibition effects. Beyond any adverse implications for repurposing Suramin in this project, the aggregation phenomenon raises more global concerns regarding the current clinical use of Suramin, and may in part explain some of the known toxicity associated with Suramin (32).

[5] = tested on: pERK levels in HUVEC cells; assay: pERK levels in HUVEC cells, western blot; type: cell-based, Human; conditions: HUVECs incubated 2 hours, pERK relative to total ERK; Na3VO4 at 200 μM
Protocol: Cell Culture and Western Blots.
Human Umbilical Vein Endothelial Cells (HUVECs) were maintained in EBM2 media (Lonza, CC-3156) supplemented with a combined serum and growth factor kit (Lonza, CC-4176). Cells were incubated with the indicated concentrations of drug for 2 h and lysed with RIPA buffer (Sigma, R0278) on ice. Cell lysates were cleared by centrifugation at 16,300×g for 30 min. The resulting supernatants were isolated and protein concentration determined by Lowry assay (DC protein assay, BioRad). 2× laemmli sample buffer was added to equal amounts of protein and separated by SDS-PAGE. The protein gels were transferred to polyvinylidene difluoride (PVDF) and immunoblotted using antibodies to phosphorylated ERK (Cell Signaling, #9106) and total ERK (Cell Signaling, #9102). Bound antibodies were visualized using horseradish peroxidase-linked anti-rabbit IgG, anti-mouse IgG (Cell Signaling Tech., #7074 and #7076) and ECL reagents (Thermo Scientific, 34080) according to the manufacturer's protocol.

DUSP5 PD(WT) [6] = biological target: T2, DUSP5 PD(WT); assay: pNPP phosphatase activity assay with DUSP5 PD(WT); type: biochemical; conditions: 1 mL cuvettes, pNPP substrate

Sequence of SHP-1 (P29350 whole entry): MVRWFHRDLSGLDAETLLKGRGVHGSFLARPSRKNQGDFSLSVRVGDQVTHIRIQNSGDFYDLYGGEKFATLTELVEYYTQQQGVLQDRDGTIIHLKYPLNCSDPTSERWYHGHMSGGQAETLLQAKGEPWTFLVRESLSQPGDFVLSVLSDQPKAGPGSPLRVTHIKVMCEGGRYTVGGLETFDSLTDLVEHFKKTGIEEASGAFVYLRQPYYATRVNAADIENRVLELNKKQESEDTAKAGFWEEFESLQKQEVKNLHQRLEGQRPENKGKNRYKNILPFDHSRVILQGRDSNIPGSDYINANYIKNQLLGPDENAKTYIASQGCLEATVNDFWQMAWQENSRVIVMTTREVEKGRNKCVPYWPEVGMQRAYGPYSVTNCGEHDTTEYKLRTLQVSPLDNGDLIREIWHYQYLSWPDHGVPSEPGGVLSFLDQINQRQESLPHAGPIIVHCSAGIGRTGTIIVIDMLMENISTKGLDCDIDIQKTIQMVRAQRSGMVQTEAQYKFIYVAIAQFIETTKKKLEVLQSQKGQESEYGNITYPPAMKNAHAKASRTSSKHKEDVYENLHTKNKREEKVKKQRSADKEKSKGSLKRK

Structure (SMILES): O=S(=O)(O)c1ccc2cc(N=Nc3cc(S(=O)(=O)O)c4cccnc4c3O)ccc2c1 [NSC-87877]
range of phosphatase inhibition, published compound (phosphatase [1]): ~1.7 mM

IC50 (full-length DUSP5; full-length DUSP5, pERK/ERK2 substrate): 221 ± 87 µM
Structure (SMILES): O=S(=O)(O)c1ccc2c(S(=O)(=O)O)cc(S(=O)(=O)O)cc2c1 [NTS, naphthalene 1,3,6-trisulfonate]

IC50's, range in words (DUSP5 PD(WT) [2]; enzyme inhibition (FIG. 3)): mM range
Structure (SMILES): O=S(=O)(O)c1cc(S(=O)(=O)O)c2[nH]c3c(S(=O)(=O)O)cc(S(=O)(=O)O)cc3c2c1 [RR506, Carbazole-1,3,6,8-tetrasulfonic acid, Tetrasodium Salt]

IC50 (DUSP5 (PD)-WT): 26.4 ± 7.2 µM
IC50 (PTPN1): 106 ± 0.1 µM
Structure (SMILES): O=S(=O)(O)c1cc(Oc2cc(S(=O)(=O)O)cc(S(=O)(=O)O)c2O)c(O)c(S(=O)(=O)O)c1 [RR533]

range in which active (phosphatase [3]; monomer): ~1e-06 mM
phosphatase inhibitory activity (PTP1B): phosphatase inhibitory activity
phosphatase inhibitory activity (SHP-1): phosphatase inhibitory activity
IC50 (PTPN1): > 1000 µM
aggregation [4]: do not aggregate
Structure (SMILES): Nc1cccc2c(O)cc(S(=O)(=O)O)cc12 [RR535]

range in which active (phosphatase [3]; dimer): ~30 mM
IC50 (DUSP5 (PD)-WT): 30 ± 3 µM
IC50 (PTPN1): 2.5 ± 0.1 µM
aggregation [4]: do not aggregate
Structure (SMILES): O=S(=O)(O)c1cc(O)c2cccc(N=Nc3cccc4c(O)cc(S(=O)(=O)O)cc34)c2c1 [RR601]

activity in DUSP5:pERK assay, in words (full-length DUSP5; in vitro, western blot): robust activity
Structure (SMILES): O=S(=O)([O-])c1cc2c(O)c(c1)Cc1cc(S(=O)(=O)[O-])cc(c1O)Cc1cc(S(=O)(=O)[O-])cc(c1O)Cc1cc(S(=O)(=O)[O-])cc(c1O)C2.[Na+].[Na+].[Na+].[Na+] [RR701]

inhibition at 1 µM (DUSP5 PD(WT) [2]; 1 μM Suramin, 5 mM pNPP, increasing Triton X-100, read-out: plateau level inhibition with increasing detergent): 30%
mechanism of inhibition (DUSP5 PD(WT) [2]; inhibition profile versus pNPP): competitive inhibition
Ki (DUSP5 PD(WT) [2]; read-out: Ki, competitive inhibition, varied pNPP and inhibitor): 24.6 µM and 25 µM
aggregation [4]: Aggregates
Structure (SMILES): Cc1ccc(C(=O)Nc2ccc(S(=O)(=O)O)c3cc(S(=O)(=O)O)cc(S(=O)(=O)O)c23)cc1NC(=O)c1cccc(NC(=O)Nc2cccc(C(=O)Nc3cc(C(=O)Nc4ccc(S(=O)(=O)O)c5cc(S(=O)(=O)O)cc(S(=O)(=O)O)c45)ccc3C)c2)c1 [Suramin]
effect of detergent on inhibition (DUSP5 PD(WT) [2]; IC50 measurement in presence and absence of 0.5% Triton): loss of some inhibitory capability in the presence of detergent
effect on pERK levels [5]: significant decrease in pERK levels

IC50 (DUSP5 PD(WT) [6]): 0.008 ± 0.008 µM
Structure (SMILES): [Na+].[Na+].[Na+].[O]=[V]([O-])([O-])[O-] [sodium orthovanadate]
effect on pERK levels [5]: expected increase in pERK levels
